Experimental data published in patent publication US5622933A, “Multiple branch peptide constructions for use against HIV” (priority 1993, dated 1997).
Read-outs that look alike come from different tables or passages of the source. Ends that are not written are not given here.

Experiments:
HIV-1Lai = assay: Syncytia formation blockage (chronically infected cells + uninfected Molt-4 cells); format: cell-based; set-up: key: -: The presence of syncytia is indicated by + signs, allocated in approximate proportion to the quantities counted; The presence of syncytia is indicated by + signs, allocated in approximate proportion to the quantities counted; ++: The presence of syncytia is indicated by + signs, allocated in approximate proportion to the quantities counted; +++: The presence of syncytia is indicated by + signs, allocated in approximate proportion to the quantities counted; ++++: The presence of syncytia is indicated by + signs, allocated in approximate proportion to the quantities counted
Description: (§1) CEM or C8166 cells were chronically infected with HIV-1 Lai or HIV-2 Rod, or HIV-1MN, respectively. Infected cells (1×10^4) were incubated for 2 hours with various concentrations of MBPCs in 96-well plates. Uninfected Molt-4 cells (4×10^4) were then added in […]. Syncytia were counted after 18 hours at 37° C.

HIV-2Rod = assay: as above; format: cell-based; set-up: key: -: The presence of syncytia is indicated by + signs, allocated in approximate proportion to the quantities counted; The presence of syncytia is indicated by + signs, allocated in approximate proportion to the quantities counted; ++: The presence of syncytia is indicated by + signs, allocated in approximate proportion to the quantities counted; +++: The presence of syncytia is indicated by + signs, allocated in approximate proportion to the quantities counted; ++++: The presence of syncytia is indicated by + signs, allocated in approximate proportion to the quantities counted
Description: as §1

HIV-1MN = assay: as above; format: cell-based; set-up: key: -: The presence of syncytia is indicated by + signs, allocated in approximate proportion to the quantities counted; The presence of syncytia is indicated by + signs, allocated in approximate proportion to the quantities counted; ++: The presence of syncytia is indicated by + signs, allocated in approximate proportion to the quantities counted; +++: The presence of syncytia is indicated by + signs, allocated in approximate proportion to the quantities counted; ++++: The presence of syncytia is indicated by + signs, allocated in approximate proportion to the quantities counted
Description: as §1

rabbits = assay: ELISA of sera from rabbits immunized with MBPC.1 or MBPC.2; format: in vivo, rabbit; conditions: for reactivity of sera from rabbits immunized with the MBPC (ELISA, FIG. 6): against MBPC.1, MBPC.2, Mono.1 and V3 Cons; for antibody response in rabbits: rabbit, in vivo
Description: Sera from rabbits immunized with either MBPC.1 or MBPC.2 were tested in ELISA for their ability to bind MBPC.1, MBPC.2, Mono.1 (the monomeric form of MBPC.1) and the North American/European consensus V3 sequence (V3 Cons, or Cs).
In another set of experiments, sera from rabbits immunized with either MBPC.1 or MBPC.2 were tested (at 1/100 and 1/1000 dilutions) against various concentrations of MBPC.1, MBPC.2 and V3 Cons. FIGS. 7A, 7B and 7C clearly indicate that sera from rabbits immunized with MBPC.2 reacted in a dose dependant manner against MBPC.2 and V3 Cons. No reactivity against MBPC.1 was detected.

HIV-1 (IIIB) = format: cell-based; conditions: for number of syncytia (HIV-1 induced cell fusion): 24 hours
From the text: 50×10^3 8E5 cells chronically infected with a RT-deficient HIV-I (IIIB) isolate, were co-cultivated with 150×10^3 phytohemagglutinin (PHA) stimulated human peripheral blood lymphocytes (PBLs) in the presence of the indicated peptide in 96-well plates. The MBPCs used are described by the peptides attached, and the number thereof, to a core lysine matrix, which is designated HLC. All amino acids used for this experiment were in dextro form.

HIV-1 or HIV-2 = assay: Infection of human PBLs (RT activity, p24gag); format: cell-based; conditions: MBPC 10^-5 M; days 10 and 13 after infection; culture supernatants
Description: Peripheral blood lymphocytes (PBLs) were obtained from healthy donors, stimulated with phytohemagglutinin, and cultivated in RPMI 1640 containing 10% fetal calf serum and interleukin-2 (complete medium). Samples of 6×10^6 cells/ml were either treated or not treated with the indicated MBPC at a concentration of 10^-5 M and exposed to HIV-1 or HIV-2 (100 TCID50) for 1 hour at 37° C. in the continued presence of MBPCs. After thorough washing, PBLs were cultured in complete medium with 10^-5 M of the corresponding MBPC. The state of infection was assessed by determination of RT activity (for both HIV-1 and HIV-2 isolates) and HIV-1 p24^gag measurements (Coulter kit, cut-off 10 pg/ml) in the case of HIV-1 isolates 10 days post-infection. The MBPC treatment used were as follows: 1-none; 2- [GPGRAF]8 -MLC; 3-[[…]]4 -MLC; 4- [[…]]4 -MLC (a non-HIV related MBPC) (MLC indicates a core lysine structure). The results shown in FIGS. 2A-2C are representative of three separate experiments. The nature of the viral isolates used was checked by PCR (HIV-1 versus HIV-2 isolates) and RIPA for discriminating between HIV-1 (LAI) and HIV-1 (NDK).

[1] = tested on: Peripheral blood lymphocytes (PBL); assay: PBL antigen and mitogen induced proliferation ([3H]thymidine incorporation); format: cell-based, human; conditions: MBPCs 5×10^-6 M
Description: Peripheral blood lymphocytes (PBL) from 3 healthy HIV sero-negative donors were isolated from heparinized blood by the Ficoll-Hypaque technique. The culture medium was RPMI 1640 supplemented with 1% glutamine, 1% antibiotics and 10% heat inactivated fetal calf serum. Cells (10^5) were incubated in the presence of MBPCs (5×10^-6 M) with or without antigen (candidine, PPD) or mitogen (PHA). Antigen or mitogen treated cells were pulsed for eight hours with […] of [3H] thymidine. Then cells were harvested and [3H] thymidine incorporation in DNA was counted. […]

Row | Substance | Syncytia formation (HIV-1Lai; MBPC Conc. 5 × 10^-6 M) | Syncytia formation (HIV-1Lai; MBPC Conc. 10^-6 M) | Syncytia formation (HIV-1Lai; MBPC Conc. 10^-7 M) | Syncytia formation (HIV-2Rod; MBPC Conc. 5 × 10^-6 M) | Syncytia formation (HIV-2Rod; MBPC Conc. 10^-6 M) | Syncytia formation (HIV-2Rod; MBPC Conc. 10^-7 M) | Syncytia formation (HIV-1MN; MBPC Conc. 5 × 10^-6 M) | Syncytia formation (HIV-1MN; MBPC Conc. 10^-6 M) | Syncytia formation (HIV-1MN; MBPC Conc. 10^-7 M) | reactivity of sera from rabbits immunized with the MBPC (ELISA, FIG. 6) (rabbits) | antibody response in rabbits (rabbits) | number of syncytia (HIV-1 induced cell fusion) (HIV-1 (IIIB); 5 × 10^-6 M) | number of syncytia (HIV-1 induced cell fusion) (HIV-1 (IIIB); 5 × 10^-7 M) | RT activity lower in MBPCs-treated samples than control samples (HIV-1 or HIV-2) | [3H] Thymidine Incorporation ([1]; Donor 1, Cand1) [cpm] | [3H] Thymidine Incorporation ([1]; Donor 1, Cand2) [cpm] | [3H] Thymidine Incorporation ([1]; Donor 1, PPD1) [cpm] | [3H] Thymidine Incorporation ([1]; Donor 1, PPD2) [cpm] | [3H] Thymidine Incorporation ([1]; Donor 2, Cand1) [cpm] | [3H] Thymidine Incorporation ([1]; Donor 2, Cand2) [cpm] | also measured
1 | (GPGRAF)8 -(K)4 -(K)2 -K-βA-OH [MBPC.3] | - | + | ++++ | - | - | + | - | + | +++ | did not react against MBPC.1 (except for a weak reactivity of the serum from rabbit A) | did not induce a significant antibody response | - (- indicates the total absence of syncytia in the well) | ± | more than 90% | 87000 | 100000 | 1300 | 3100 | 17000 | 11000 | number of syncytia (HIV-1 induced cell fusion) (HIV-1 (IIIB); 5 × 10^-5 M): - (- indicates the total absence of syncytia in the well); inhibition of syncytia formation, in words (HIV-1 (IIIB); 5×10^-7 M): marked inhibition of syncytia formation; [3H] Thymidine Incorporation ([1]; Donor 2, PHA1): 87000 cpm; [3H] Thymidine Incorporation ([1]; Donor 2, PHA2): 95000 cpm; [3H] Thymidine Incorporation ([1]; Donor 2, PPD1): 24000 cpm; [3H] Thymidine Incorporation ([1]; Donor 2, PPD2): 27000 cpm; [3H] Thymidine Incorporation ([1]; Donor 3, Cand1): 3200 cpm; [3H] Thymidine Incorporation ([1]; Donor 3, Cand2): 1200 cpm; [3H] Thymidine Incorporation ([1]; Donor 3, PHA1): 162000 cpm; [3H] Thymidine Incorporation ([1]; Donor 3, PHA2): 154000 cpm; [3H] Thymidine Incorporation ([1]; Donor 3, PPD1): 3900 cpm; [3H] Thymidine Incorporation ([1]; Donor 3, PPD2): 3100 cpm
2 | (RKSIHIGPGRAFYT)4 -(K)2 -K-βA-OH (also: four copies on lysine core (K)2-K-βA-OH) [MBPC.5, tetradecapeptide MBPC] | - | + | ++++ | - | - | + | - | ++ | ++++ | recognized significantly MBPC.2 and V3 Cons | did invoke such a response | - (- indicates the total absence of syncytia in the well) | +++ | more than 90% | 80000 | 85000 | 1300 | 2100 | 15000 | 9000 | inhibition of syncytia formation, in words (HIV-1 (IIIB); 5×10^-6 M): able to inhibit syncytia formation; [3H] Thymidine Incorporation ([1]; Donor 2, PHA1): 115000 cpm; [3H] Thymidine Incorporation ([1]; Donor 2, PHA2): 111000 cpm; [3H] Thymidine Incorporation ([1]; Donor 2, PPD1): 24000 cpm; [3H] Thymidine Incorporation ([1]; Donor 2, PPD2): 26000 cpm; [3H] Thymidine Incorporation ([1]; Donor 3, Cand1): 3700 cpm; [3H] Thymidine Incorporation ([1]; Donor 3, Cand2): 1100 cpm; [3H] Thymidine Incorporation ([1]; Donor 3, PHA1): 228000 cpm; [3H] Thymidine Incorporation ([1]; Donor 3, PHA2): 188000 cpm; [3H] Thymidine Incorporation ([1]; Donor 3, PPD1): 4000 cpm; [3H] Thymidine Incorporation ([1]; Donor 3, PPD2): 2400 cpm
